The term inhibition denotes the percentage by which the read-out fell short of the control.

Results on three molecules are retold here after US20260297542A1, “HERBICIDE RESISTANT PLANTS” (SYNGENTA CROP PROTECTION AG, priority 2023, published 2026).

Common to all, as to experiment: E. coli hemG growth inhibition by herbicide, AtPPO1 variant
Holding throughout (format): cell-based
Holding throughout (conditions): read-out: percentage growth inhibition

One experiment deals with T1, AtPPO1 F478R (Arabidopsis thaliana, UniProt P55826, F478R).
T1 construct: expressed in transfected cells; host or cells: E. coli BL21(DE3) hemG, pET24a plasmid
T1 sequence (P55826 35-537 F478R): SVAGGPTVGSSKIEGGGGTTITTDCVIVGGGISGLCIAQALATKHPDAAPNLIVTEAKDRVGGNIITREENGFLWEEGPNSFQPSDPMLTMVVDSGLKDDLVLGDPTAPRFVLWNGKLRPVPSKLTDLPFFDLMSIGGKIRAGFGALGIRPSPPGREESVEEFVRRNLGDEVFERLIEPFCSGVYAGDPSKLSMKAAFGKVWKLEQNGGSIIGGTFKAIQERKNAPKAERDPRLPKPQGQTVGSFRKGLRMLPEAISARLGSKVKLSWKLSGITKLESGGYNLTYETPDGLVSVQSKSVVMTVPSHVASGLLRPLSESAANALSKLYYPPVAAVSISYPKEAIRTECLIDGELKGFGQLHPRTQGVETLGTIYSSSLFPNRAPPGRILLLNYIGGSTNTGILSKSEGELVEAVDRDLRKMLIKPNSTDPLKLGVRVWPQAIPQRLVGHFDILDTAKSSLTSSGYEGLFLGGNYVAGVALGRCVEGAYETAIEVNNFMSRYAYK
Summed up: (§1)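 Variant plasmids were transformed into hemG-null BL21(DE3) and precultured 24 h with hematin. Washed cells were diluted 1:100 into Terrific broth containing 0.1 mM IPTG and herbicide (6.25 ppm 0 or E; 0.78 ppm B) or DMSO. After 24 h at 37° C, OD600 gave percent inhibition.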

The target in a further experiment is T2, AtPPO1 P271C (Arabidopsis thaliana, UniProt P55826, P271C).
T2 construct: expressed in transfected cells; host or cells: E. coli BL21(DE3) hemG (hemG replaced by CmR), pET24a plasmid
T2 sequence (P55826 35-537 P271C): T1 sequence (P55826 35-537 F478R) with P237C, R444F
Summed up:
as §1

In the next experiment the target is T3, AtPPO1 V365L (Arabidopsis thaliana, UniProt P55826, V365L).
T3 construct: expressed in transfected cells; host or cells: E. coli BL21(DE3) hemG (pET24a, T7 promoter)
T3 sequence (P55826 35-537 V365L): T1 sequence (P55826 35-537 F478R) with V331L, R444F
The method, boiled down: as §1

The target of another experiment is T4, AtPPO1 Y361R (Arabidopsis thaliana, UniProt P55826, Y361R).
T4 sequence (P55826 35-537 P363R/Y361R): T1 sequence (P55826 35-537 F478R) with R444F
The method, boiled down:
as §1

Molecules are shown by their SMILES. Changes are numbered by the printed parent chain.

Turning to `C#CCN1C(=O)C(F)(F)Oc2cc(F)c(-n3c(=O)n(C)c(=S)n(C)c3=O)cc21` [Herbicide B, trifludimoxazin], the inhibition at 0.78 ppm was 23% on AtPPO1 F478R, 24% on AtPPO1 P271C, 11% at AtPPO1 V365L and 36% on AtPPO1 Y361R.

Regarding `CCOC(=O)[C@]1(C)CC(c2cc(-n3c(=O)n(C)c(=S)n(C)c3=O)c(F)cc2Cl)=NO1` [Herbicide D, ethyl (5S)-3-[2-chloro-5-(3,5-dimethyl-2,6-dioxo-4-thioxo-1,3,5-triazinan-1-yl)-4-fluoro-phenyl]-5-methyl-4H-isoxazole-5-carboxylate], the inhibition at 6.25 ppm amounted to 30% on AtPPO1 F478R, 24% on AtPPO1 P271C, 55% on AtPPO1 V365L and 43% at AtPPO1 Y361R.

For `CC(C)N(C)S(=O)(=O)NC(=O)c1cc(-n2c(=O)cc(C(F)(F)F)n(C)c2=O)c(F)cc1Cl` [Herbicide E, saflufenacil], the inhibition at 6.25 ppm is 61% at AtPPO1 F478R, 66% on AtPPO1 P271C, 27% on AtPPO1 V365L and 56% at AtPPO1 Y361R.
